Measurements published in ChEMBL document CHEMBL5370612, “Cytotoxic Epipolythiodioxopiperazines from the Deep-Sea-Derived Fungus Exophiala mesophila MCCC 3A00939” (J Nat Prod, 2023).

Legend:
K562 = test: Cytotoxicity against human K562 cells by MTT method; format: functional, cell-based
ASPC1 = test: Cytotoxicity against human ASPC1 cells by SRB method; format: functional, cell-based
H69AR = test: Cytotoxicity against human NCI-H69AR cells by SRB method; format: functional, cell-based
MDA-MB-231 = test: Cytotoxicity against human MDA-MB-231 cells by SRB method; format: functional, cell-based
[1] = Cytotoxicity against human L02 cells by SRB method; format: toxicity, cell-based

| SMILES | IC50 (K562) [µM] | IC50 (ASPC1) [µM] | IC50 (H69AR) [µM] | IC50 (MDA-MB-231) [µM] | IC50 [1] [µM] |
| --- | --- | --- | --- | --- | --- |
| CS[C@@]12CC3=COC=C[C@H](OC(C)=O)[C@H]3N1C(=O)[C@]1(SC)CC3=COC=C[C@H](OC(C)=O)[C@H]3N1C2=O | > 30 | > 30 | > 30 | > 30 | > 30 |
| CS[C@@]12CC3=COC=C[C@H](O)[C@H]3N1C(=O)[C@]1(SC)CC3=COC=C[C@H](O)[C@H]3N1C2=O | > 30 | > 30 | > 30 | > 30 | > 30 |
| CS[C@@]12CC3=COC=C[C@H](OC(C)=O)[C@H]3N1C(=O)[C@]1(SC)CC3=COC=C[C@H](O)[C@H]3N1C2=O | > 30 | > 30 | > 30 | > 30 | > 30 |
| CS[C@@]12CC3=COC=C[C@H](OC(=O)CC(C)=C(C)C)[C@H]3N1C(=O)[C@]1(SC)CC3=COC=C[C@H](O)[C@H]3N1C2=O | > 30 | > 30 | > 30 | > 30 | > 30 |
| CS[C@@]12CC3=COC=C[C@H](OC(C)=O)[C@H]3N1C(=O)[C@]1(SC)CC3=COC=C[C@H](OC(=O)CC(C)=C(C)C)[C@H]3N1C2=O | > 30 | > 30 | > 30 | 29 | > 30 |
| CC(C)=C(C)CC(=O)O[C@H]1C=COC=C2C[C@@]34SSSS[C@]5(CC6=COC=C[C@H](O)[C@H]6N5C3=O)C(=O)N4[C@@H]21 | 2.3 | 13 | 5.9 | 3.7 | 8.5 |
| O=C(Cc1ccccc1)O[C@H]1C=COC=C2C[C@@]34SSSS[C@]5(CC6=COC=C[C@H](O)[C@H]6N5C3=O)C(=O)N4[C@@H]21 | 3.1 | 25 | 3.6 | 4.3 | 18 |
| CC(=O)O[C@H]1C=COC=C2C[C@@]34SS[C@]5(CC6=COC=C[C@H](O)[C@H]6N5C3=O)C(=O)N4[C@@H]21 [ARANOTIN] | 1.4 | 11 | 1.7 | 0.7 | 16 |
| COc1cccc2c1C(=O)c1c(O)c3c(c(O)c1C2=O)C[C@@](O)(C(=O)CO)C[C@@H]3O[C@H]1C[C@H](N)[C@H](O)[C@H](C)O1 [DOXORUBICIN] | < 1 | < 1 | < 1 | < 1 | < 1 |
